Some test systems named below: HCT-15 colon; HS 578T breast; IGROV1 ovarian; RXF 393 renal; LOX IMVI melanoma; NCI-H226 lung; 786-0 renal; RPMI-8226 leukemia; UO-31 renal; SW-620 colon.
What all share (assay): NCI-60 cell line screen, 48 h

SMILES strings stand for the structures.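 Where inhibition never reached the appropriate level, the endpoint shown equals the highest concentration tested. Otherwise, values were interpolated linearly from a five-concentration, 48-hour dose response in 96-well plates. GI50: concentration for 50% inhibition of growth. Definition used: TGI = concentration required for complete inhibition of growth.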

`C[C@]12CC[C@@H]3c4ccc(O)cc4CC[C@H]3[C@@H]1CC[C@@H]2NS(=O)(=O)c1ccc(-c2ccccc2)cc1`: the GI50 with HCT-15 colon is 3.04 µM; in the assay on HS 578T breast, 7.37 µM; with IGROV1 ovarian it was 6.66 µM; in the assay on RXF 393 renal, 2.58 µM; in the assay with LOX IMVI melanoma it was 10.6 µM; in the assay with NCI-H226 lung, 3.13 µM. Further, the GI50 in the assay with 786-0 renal was 3.82 µM; with RPMI-8226 leukemia it was 2.51 µM; in the assay on UO-31 renal, 3.56 µM; with SW-620 colon, 5.54 µM. Also, the TGI with HCT-15 colon is 16.5 µM; in the assay with HS 578T breast, greater than 100 µM; in the assay with IGROV1 ovarian, greater than 100 µM; with RXF 393 renal it was 8.08 µM; with LOX IMVI melanoma it was 23.9 µM; in the assay with NCI-H226 lung it was 19.4 µM. In addition, the TGI with 786-0 renal is 22.5 µM; with RPMI-8226 leukemia, 11.4 µM; with UO-31 renal it was greater than 100 µM; in the assay with SW-620 colon, greater than 100 µM.

`CC(=O)C1=C(O)/C(=C\c2ccco2)OC1=O`: the TGI with HCT-15 colon, in the assay on HS 578T breast, with IGROV1 ovarian, in the assay on RXF 393 renal, with LOX IMVI melanoma and in the assay with NCI-H226 lung was greater than 10 µM in each case. Also, the TGI in the assay on 786-0 renal, with RPMI-8226 leukemia, in the assay with UO-31 renal and in the assay with SW-620 colon was greater than 10 µM throughout.

As for `CCNC(=O)Oc1ccc(/C(=C(\C)c2ccc(Cl)cc2)c2ccc(OCCN3CCCCC3)cc2)cc1`, the GI50 is 2.49 µM in the assay with HCT-15 colon; 3.62 µM in the assay on HS 578T breast; 4.13 µM with IGROV1 ovarian; 2.19 µM in the assay with RXF 393 renal; 1.93 µM in the assay with LOX IMVI melanoma; 14.4 µM with NCI-H226 lung. Besides, the GI50 with 786-0 renal is 1.79 µM; in the assay with RPMI-8226 leukemia, 2.31 µM; in the assay with UO-31 renal, 2.05 µM; in the assay on SW-620 colon, 2.2 µM. The TGI in the assay with HCT-15 colon came to 7.72 µM; in the assay with HS 578T breast it was 17.2 µM; in the assay on IGROV1 ovarian, 15.8 µM; in the assay on RXF 393 renal it was 8.77 µM; with LOX IMVI melanoma it was 3.94 µM; in the assay on NCI-H226 lung it was 36.7 µM. Besides, the TGI in the assay with 786-0 renal stood at 3.43 µM; with RPMI-8226 leukemia it was 5.27 µM; in the assay with UO-31 renal, 5.45 µM; with SW-620 colon, 4.97 µM.

Take `COc1cc2c(cc1OC)[C@H]1C(=O)c3cc4c(cc3[C@H]1N(C)C2=O)OCO4`: the TGI was greater than 100 µM with HCT-15 colon; greater than 100 µM in the assay on HS 578T breast; greater than 100 µM in the assay with IGROV1 ovarian; greater than 100 µM with RXF 393 renal; greater than 40.8 µM with LOX IMVI melanoma; greater than 100 µM in the assay on NCI-H226 lung. Moreover, the TGI was greater than 45.2 µM in the assay on 786-0 renal, greater than 100 µM in the assay with RPMI-8226 leukemia, greater than 39.3 µM in the assay on UO-31 renal and greater than 100 µM in the assay with SW-620 colon.

As to `CCOC(=O)Cc1csc(NC(=O)C(OC(=O)c2ccc(N)cc2)c2ccccc2)n1` (stereo not given), the GI50 was 43.5 µM in the assay with HCT-15 colon; 80.9 µM with HS 578T breast; 52.8 µM with IGROV1 ovarian; 66.4 µM in the assay on RXF 393 renal; 41.7 µM in the assay on LOX IMVI melanoma; 60 µM with NCI-H226 lung. The GI50 with 786-0 renal was 48.6 µM; in the assay with RPMI-8226 leukemia, 63.9 µM; with UO-31 renal, 54.4 µM; with SW-620 colon it was 49.5 µM. The TGI in the assay with HCT-15 colon, in the assay with HS 578T breast, in the assay with IGROV1 ovarian, in the assay on RXF 393 renal, with LOX IMVI melanoma and in the assay on NCI-H226 lung was greater than 100 µM throughout. Moreover, the TGI in the assay with 786-0 renal, in the assay with RPMI-8226 leukemia, in the assay on UO-31 renal and with SW-620 colon was greater than 100 µM each time.

`CC(C)(C)NCCC(O)c1cc(C(F)(F)F)nc2c(C(F)(F)F)cccc12` (stereo not given): the TGI was determined as 21 µM with HCT-15 colon; 34.4 µM in the assay with HS 578T breast; 23.8 µM with IGROV1 ovarian; 19.2 µM in the assay on RXF 393 renal; 5.31 µM in the assay on LOX IMVI melanoma; 33.4 µM with NCI-H226 lung. The TGI with 786-0 renal was 19.6 µM; in the assay with RPMI-8226 leukemia it was 17.1 µM; in the assay on UO-31 renal, 1.34 µM; in the assay on SW-620 colon, greater than 52.6 µM.

`Cc1nc(C(N)=S)sc1C(=O)CC(=O)C(=O)Nc1cccc(Cl)c1C`: the TGI with HCT-15 colon, with HS 578T breast, with IGROV1 ovarian, in the assay with RXF 393 renal, in the assay on LOX IMVI melanoma and in the assay with NCI-H226 lung was greater than 100 µM each time. Besides, the TGI in the assay on 786-0 renal, in the assay with RPMI-8226 leukemia, in the assay on UO-31 renal and with SW-620 colon was greater than 100 µM throughout.

Turning to `CCSc1nc(N)c2cnn(C)c2n1`, the GI50 in the assay on HCT-15 colon was 32 µM; with HS 578T breast it was 30.7 µM; with IGROV1 ovarian, 53.5 µM; in the assay on RXF 393 renal, 36.2 µM; in the assay with LOX IMVI melanoma, 33 µM; in the assay with NCI-H226 lung it was 27.4 µM. Further, the GI50 was 80 µM in the assay with 786-0 renal, 37.5 µM in the assay on RPMI-8226 leukemia, 38.3 µM in the assay on UO-31 renal and 34.2 µM in the assay with SW-620 colon. Moreover, the TGI with HCT-15 colon is greater than 100 µM; with HS 578T breast, 74 µM; with IGROV1 ovarian it was greater than 100 µM; in the assay with RXF 393 renal, greater than 100 µM; in the assay on LOX IMVI melanoma, greater than 100 µM; with NCI-H226 lung, 69.2 µM. Moreover, the TGI in the assay with 786-0 renal, in the assay on RPMI-8226 leukemia, in the assay on UO-31 renal and in the assay on SW-620 colon was greater than 100 µM in each case.

For the compound `O=[N+]([O-])c1cccc(-c2ncc(-c3ccc(Cl)cc3Cl)[nH]2)c1`, the GI50 with HCT-15 colon is 2.39 µM; with HS 578T breast it was 3.89 µM; with IGROV1 ovarian it was 6.65 µM; in the assay with RXF 393 renal it was 2.25 µM; with LOX IMVI melanoma, 3.35 µM; in the assay with NCI-H226 lung, 8.03 µM. For the same compound, the GI50 with 786-0 renal is 5.16 µM; in the assay on RPMI-8226 leukemia, 1.08 µM; in the assay with UO-31 renal, 5.18 µM; in the assay with SW-620 colon, 1.6 µM. Moreover, the TGI in the assay on HCT-15 colon is 6.82 µM; in the assay on HS 578T breast, greater than 49.5 µM; in the assay on IGROV1 ovarian it was 13.5 µM; in the assay with RXF 393 renal it was 6 µM; in the assay with LOX IMVI melanoma, 8.55 µM; in the assay with NCI-H226 lung, 21.6 µM. For the same compound, the TGI was found to be 11 µM with 786-0 renal, 4.68 µM with RPMI-8226 leukemia, 15.3 µM in the assay on UO-31 renal and 3.16 µM in the assay with SW-620 colon.

The values are drawn from PubChem BioAssay (NCI).
